The subject of one test is S. aureus Smith. The test can be described thus: Acute infection model in mice (intraperitoneal infection). It counts as in vivo. As to the method:
The efficacy of lysostaphin was compared to that of vancomycin in an acute infection model in mice. S. aureus Smith was cultured overnight, with moderate agitation, in Veal Infusion broth (Difco) and diluted in broth containing 5% hog gastric mucin (Difco). Male Swiss~Webster mice (Taconic Farms, Germantown, NY) weighing approximately 20 grams were infected intraperitoneally with 10^5-10^6 viable cells, approximately tenfold the inoculum that reproducibly killed all untreated animals within 48 h. There were six mice in each treatment group. Lysostaphin was administered intravenously (in 0.1 ml 5% dextrose for injection) or subcutaneously (in 0.2 ml), within 10 min of infection. Vancomycin was administered subcutaneously.

The next test has as its system S. aureus strain AG461. The experiment in a line: Time-kill experiment (Figure 1). It counts as cell-based, Staphylococcus aureus. The note with it: vancomycin 2 and 16 µg/ml (one and eight times MIC); three hours of contact. The method, then:
The bactericidal activity of lysostaphin against S. aureus was also studied by means of time-kill experiments. In one experiment of this type, S. aureus strain AG461, a methicillin-resistant clinical isolate from Genoa, Italy, was inoculated into Mueller-Hinton broth (Difco) and grown at 37°C with gentle shaking until it reached approximately 10^8 viable cells per ml (CFU/ml), as estimated from the absorbance of the culture at 600 nm. The culture was then diluted with fresh broth to approximately 10^6 CFU/ml and 5 ml aliquots were placed in several different flasks for exposure to different concentrations of antibacterial agents. Incubation was continued, with gentle shaking, at 37°C, and samples were withdrawn at intervals for determination of viable cells. Serial 10-fold dilutions of the samples were made in sterile saline (0.9% NaCl in distilled water) and duplicate 0.1 ml aliquots of appropriate dilutions were plated on Tryptic Soy agar plates (Remel) using the agar inclusion method. (In this method, the aliquot to be plated is added to 2.5 ml of top agar, which is mixed and poured onto a plate. Top agar consisted of molten Tryptic Soy agar (Difco) diluted 2-fold with Difco Tryptic Soy broth to give a final agar concentration of 0.75%, w/v.) The plates were incubated for 24-48 hours at 36°C and the colonies were counted manually. […]

Test [1] has as its system methicillin-resistant VISA strain of S. aureus. The experiment in a line: Endocarditis in rabbits caused by a VISA strain. To be noted: vancomycin 30 mg/kg twice daily. It is filed as in vivo.
Test [2] relates to methicillin-resistant S. aureus strain (MRSA 27619). The test can be described thus: Experimental aortic valve endocarditis in rabbits. It is filed as in vivo. To be noted: vancomycin 30 mg/kg twice daily iv, three days. The method, then:
Aortic valve endocarditis was established in New Zealand white rabbits weighing approximately 3 kg. Rabbits were anesthetized and the right carotid artery surgically exposed and cannulated with a polyethylene catheter which was advanced into the left ventricle of the heart. After at least 24 h, the rabbits were infected intravenously with 10^6-10^7 cells of a methicillin-resistant S. aureus strain (MRSA 27619). Twenty-four hours later, the animals were randomly assigned to different treatment groups: untreated control (9 rabbits); positive control, vancomycin 30 mg/kg twice daily (15); lysostaphin 5 mg/kg three times daily (11); lysostaphin 5 mg/kg once daily (10); lysostaphin 5 mg/kg once daily + vancomycin 30 mg/kg twice daily (11). Any rabbits whose infection was not confirmed by pre-treatment blood culture were eliminated.
All treatments were intravenous and were carried out for three days. The state of health of the rabbits was assessed at intervals. The rabbits were sacrificed 18 h after the last treatment. Aortic vegetations were removed and weighed and processed to determine the number of viable bacteria, expressed as log10CFU/gram. The limit of detection is 10^2 CFU/gram (log10CFU/gram=2.0). The mean titers of bacteria per gram were compared by one-way analysis of variance. The Student-Newman-Keuls test was used to adjust for multiple comparisons. […]

Marks after values point to notes of the source that are not given here.

For the molecule `CN[C@H](CC(C)C)C(=O)N[C@H]1C(=O)N[C@@H](CC(N)=O)C(=O)N[C@H]2C(=O)N[C@H]3C(=O)N[C@H](C(=O)N[C@H](C(=O)O)c4cc(O)cc(O)c4-c4cc3ccc4O)[C@H](O)c3ccc(c(Cl)c3)Oc3cc2cc(c3O[C@@H]2O[C@H](CO)[C@@H](O)[C@H](O)[C@H]2O[C@H]2C[C@](C)(N)[C@H](O)[C@H](C)O2)Oc2ccc(cc2Cl)[C@H]1O` [vancomycin], the “% survival” value in the test with S. aureus Smith (0.63 mg/kg sc) amounted to 0%; in the test with S. aureus Smith (1.25 mg/kg sc), 83%; with S. aureus Smith (2.5 mg/kg sc) it was 100%; in the test on S. aureus Smith (5 mg/kg sc), 100%; with S. aureus Smith (Table 4 experiment, 0.63 mg/kg, route not given), 0%; in the test on S. aureus Smith (Table 4 experiment, 1.25 mg/kg, route not given) it was 83%. For the same molecule, in the test with S. aureus Smith (Table 4 experiment, 2.5 mg/kg, route not given), the “% survival” value is 100%. Moreover, in the test on S. aureus strain AG461, the bactericidal action entry is listed as “very little killing of the bacteria”. In test [1] (expressed as log10 of the mean), this molecule yielded a CFU/g vegetation of 6.95 CFU/g vegetation. The sterile/total vegetations in test [1] is 0/13. Besides, in test [2], the “Mean log10CFU/gram of vegetation ± standard deviation” value is listed as 5.91 ± 1.67^a log10CFU/gram. Further, the “Number of sterile vegetations /total animals treated” value in test [2] is given as 0/15.

These data come from patent EP1671644A2, “Pharmaceutical compositions containing Lysostaphin alone or in combination with an antibiiotic for the treatment of Staphylococcal infections” (priority 1997, dated 1999).
